From ChEMBL document CHEMBL1147034, “Synthesis and evaluation of 2',4',6'-trihydroxychalcones as a new class of tyrosinase inhibitors” (Bioorg Med Chem, 2007)

These molecules were tested against T1, Tyrosinase (Agaricus bisporus, UniProt O42713).
T1 sequence (O42713 whole entry): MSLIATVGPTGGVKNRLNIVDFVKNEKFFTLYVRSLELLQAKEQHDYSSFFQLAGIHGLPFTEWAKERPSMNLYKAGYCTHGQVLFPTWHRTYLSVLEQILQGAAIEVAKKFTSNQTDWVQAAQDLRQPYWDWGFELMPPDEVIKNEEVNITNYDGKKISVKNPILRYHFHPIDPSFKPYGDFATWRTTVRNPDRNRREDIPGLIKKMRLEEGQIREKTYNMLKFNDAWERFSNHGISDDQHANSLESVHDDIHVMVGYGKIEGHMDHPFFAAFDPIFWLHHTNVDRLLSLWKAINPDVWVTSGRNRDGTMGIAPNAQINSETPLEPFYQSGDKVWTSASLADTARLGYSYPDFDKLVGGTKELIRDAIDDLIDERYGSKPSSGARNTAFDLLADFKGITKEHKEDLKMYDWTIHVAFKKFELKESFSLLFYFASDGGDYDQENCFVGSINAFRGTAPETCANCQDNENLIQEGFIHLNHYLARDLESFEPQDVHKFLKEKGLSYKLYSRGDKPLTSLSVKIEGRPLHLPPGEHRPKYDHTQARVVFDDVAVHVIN

IC50	Ki	SMILES
3.1 µM	–	COc1cc(O)cc(O)c1C(=O)/C=C/c1ccc(O)cc1O
5 µM	–	O=C(/C=C/c1ccc(O)cc1O)c1ccc(O)cc1O
1 µM	3.1 µM	O=C(/C=C/c1ccc(O)cc1O)c1c(O)cc(O)cc1O
150 µM	–	COc1ccc(/C=C/C(=O)c2c(O)cc(O)cc2O)cc1OC
193 µM	–	O=C(/C=C/c1cccc(O)c1O)c1c(O)cc(O)cc1O
200 µM	–	O=C(/C=C/c1cc(O)c(O)c(O)c1)c1c(O)cc(O)cc1O

What follows are molecules tested against T2, Tyrosinase (Agaricus bisporus) (UniProt O42713) (assay: Inhibition of mushroom tyrosinase at 400 uM).
T2 sequence (whole entry): T1 sequence (O42713 whole entry)

inhibition	SMILES
< 20%	O=C(/C=C/c1ccc(O)c(O)c1)c1c(O)cc(O)cc1O
< 20%	COc1cc(O)c(C(=O)/C=C/c2ccc(O)c(O)c2)c(OC)c1
< 20%	COc1cc(O)c(C(=O)/C=C/c2cc(O)c(O)c(O)c2)c(OC)c1
< 20%	O=C(/C=C/c1ccc(O)c(O)c1)c1ccccc1O
< 20%	O=C(/C=C/c1ccccc1)c1ccc(O)cc1O
72%	O=C(/C=C/c1ccc(O)cc1O)c1c(O)cc(O)cc1O
< 20%	O=C(/C=C/c1ccccc1)c1c(O)cccc1O
< 20%	O=C(/C=C/c1ccc(O)c(O)c1)c1ccc(O)c(O)c1
< 20%	COc1cc(O)c(C(=O)/C=C/c2cccc(O)c2O)c(OC)c1
